# Source: paper PMC8626775, “Anti-schistosomal activities of quinoxaline-containing compounds: From hit identification to lead optimisation” (European Journal of Medicinal Chemistry, 2021)
# “And” between values parts separate entries of the source, which are not always exact repeats. Equal entries are not always repeated. “Also recorded” adds a separate entry of the source. Where two headings read alike, the source gives them in different places.
# Experiments:
# [1] = system: S. mansoni schistosomula; assay: S. mansoni schistosomula high-throughput phenotype and motility screen (Roboworm), 72 h; format: cell-based, Schistosoma mansoni; details: for EC50: Schistosoma mansoni
# Procedure: Cercariae derived from the NMRI ([…]) Puerto Rican strain (PR-1) of S. mansoni were shed from two Biomphalaria glabrata strains, the NMRI albino and pigmented outbred strains, under intensified lighting conditions (1 h of incubation at 26 °C). Cercariae were then mechanically transformed into schistosomula as previously described.
# High-throughput screening (HTS) of selected compounds was conducted as previously described. Briefly, newly transformed schistosomula were distributed in a 384-well tissue culture plate (PerkinElmer, cat 6007460, seeding density of 120 parasites/well). Each compound (at a single concentration or two-fold titrations) was transferred into individual wells alongside the positive and negative controls (AUR at 10 μM final concentration in 0.625% DMSO and 0.625% DMSO, respectively). Schistosomula/compound co-cultures were then incubated at 37 °C for 72 h in a humidified atmosphere containing 5% CO2. Following the co-culture period, automatic assessment of compound-induced schistosomula motility and phenotypic changes were conducted with the high-content imaging platform Roboworm using the image analysis model previously described by Paveley et al..
# [2] = system: S. mansoni adult worms; assay: S. mansoni adult worm motility screen (WormassayGP2), 72 h; format: cell-based, Schistosoma mansoni; details: for EC50: Schistosoma mansoni
# Source text: Mice (Mus musculus HsdOLa:TO - Tuck Ordinary; Envigo, UK) were used for the mammalian-specific propagation of the S. mansoni life cycle. Experimental animals were infected with 4000 or 180 S. mansoni cercariae/mouse and perfused three- or seven-weeks post-infection to obtain S. mansoni juvenile or adult worms, respectively. Preparation steps following perfusion have been described previously. Briefly, the parasite material was washed three times with pre-warmed adult worm media (DMEM (Gibco, Paisley, UK) supplemented with 10% (v/v) Fetal Calf Serum (FCS, Gibco, Paisley, UK), 1% (v/v) L-glutamine (Gibco, Paisley, UK) and an antibiotic mixture (150 Units/ml penicillin and 150 μg/ml streptomycin; Gibco, UK)) to remove residual host contamination and incubated in a humidified environment containing 5% CO2 at 37 °C for at least 1 h.
# For the evaluation of anti-schistosomal activity on the adult stage of the parasite, 7-wk old worms were transferred into 48 well tissue culture plates (1–3 worm pairs/well, in duplicate). […] DMSO (0.5%) and praziquantel (10 μM in 0.5% DMSO) were also included as negative and positive control treatments. Treated adult worms were incubated for 72 h in a humidified environment containing 5% CO2 at 37 °C. Parasite motility after compound treatment was assessed by a digital image processing-based system (WormassayGP2), modified after Wormassay. Following compound-parasite co-incubation, eggs were collected, fixed in formalin (10% v/v formaldehyde) and enumerated aiming to collect further information on any compound-induced effects on parasite fecundity and IVLE production.
# [3] = system: adult S. japonicum male worms; assay: In vitro screening of S. japonicum adults at 100 nM (WormAssay motility, descriptors, severity score); format: cell-based, Schistosoma japonicum; set-up: key to DESCRIPTORS 48 h / DESCRIPTORS 72 h: Dark = dark; S = Slow; S-uncoord = uncoordinated slow movements; O-uncoord = uncoordinated fast movements; On sides = male worms are not adhering to dish with ventral sucker; Shrunk = worms are not flexing and are smaller than usual; Teg damage = outer surface (tegument of the worm) is damaged; Deg= degenerating; D = Dead; details: for Effect on S. japonicum adult male worms: 5, 24, 48 and 72 h; for SEVERITY SCORES 5 h / SEVERITY SCORES 24 h / SEVERITY SCORES 48 h / SEVERITY SCORES 72 h: max = 4, one line per replicate
# Procedure: (§1) For each species, parasite recovery involved reverse perfusion of the hepatic portal and mesenteric system using DMEM (Fisher Scientific). Parasites were washed six times with Basch 169 medium supplemented with 100 U/ml penicillin and 100 μg/ml streptomycin before manually distributing approximately 5 males per well (on occasion 1 or 2 females might also be present) of a 24-well plate (Corning Costar 3524). […] The next morning, a final concentration of 100 nM compound (in 1 μL DMSO) was added to each well and the final volume made up to 2 ml with Basch 169 medium supplemented with antibiotics and FBS. Each compound was tested in triplicate (except for some instances tested in duplicate). […] The phenotypic characterisation of compound effects focused on male worms due to the greater range of their motility characteristics that include flexing, bending, stretching, sucker walking and adherence, compared to the more sedentary female worms. In addition to descriptors, WormAssay, as adapted for the schistosome, was used to measure average worm motility per well [72, 73].
# [4] = system: HepG2 cells; assay: HepG2 MTT cytotoxicity assay; details: for Toxicity on HepG2 in words: 24 h; for Selectivity Index (SI) Somula: HepG2 CC50 versus schistosomula EC50
# Procedure: Initially the cells were handled under sterile conditions and grown at 37 °C in a humidified atmosphere containing 5% CO2. Cytotoxicity was evaluated by way of a 3-(4, 5- dimethylthiazol-2-yl)-2,5-diphenyl tetrazolium bromide (MTT) assay as previously described. The cells were counted in a dual chamber counting slide using the BIORAD TC-10 Automated cell counter, seeded in a 96-well plate (Fisher Scientific, Loughborough, UK) at a density of 2 × 10^4 cells/well and incubated in an atmosphere of 5% CO2 at 37 °C. […] The absorbance readings (at 570 nm) of the soluble formazan crystals were recorded using PolarStar Omega plate reader (BMG-Labtech). […] The latter was used to calculate the selectivity index (SI) of the compounds presented herein.
# [5] = system: Adult S. haematobium worms; assay: In vitro screening of S. haematobium adults at 100 nM (WormAssay motility, descriptors, severity score); format: cell-based, Schistosoma haematobium
# Procedure: as §1
# [6] = 72 h, Table 2, average of phenotype and motility EC50, 72 h, read-out: Activity on schistosomula (EC50, μM - 72 h) Average
# [7] = 72 h, Table 2, motility, 72 h, three replicate titrations (0.313–10 μM), read-out: Activity on schistosomula (EC50, μM - 72 h) M
# [8] = 72 h, Table 2, phenotype, 72 h, three replicate titrations (0.313–10 μM), read-out: Activity on schistosomula (EC50, μM - 72 h) P
# [9] = Table 4, Series A, read-out: Anti-schistosomal activity EC50 Schistosomula (μM) Motility
# [10] = Table 4, Series A, read-out: Anti-schistosomal activity EC50 Schistosomula (μM) Phenotype
# [11] = Table 4, Series A, read-out: Anti-schistosomal activity EC50 Adult (nM) Motility
# [12] = Table 2, 72 h, titrations 0.0095–5 μM, WormassayGP2, read-out: Activity on adult worms (EC50, μM - 72 h) Motility
# [13] = S. japonicum, one line per replicate
# [14] = Table 5, Series C, read-out: Anti-schistosomal activity EC50 Schistosomula (μM) Motility
# [15] = Table 5, Series C, read-out: Anti-schistosomal activity EC50 Schistosomula (μM) Phenotype
# [16] = 72 h, Table 1, 72 h, two dose response titrations (0.313–10 μM), 95% CI in brackets, read-out: Activity on schistosomula (EC50, μM - 72 h) Motility
# [17] = 72 h, Table 1, 72 h, two dose response titrations (0.313–10 μM), 95% CI in brackets, read-out: Activity on schistosomula (EC50, μM - 72 h) Phenotype
# [18] = 72 h, Table 1, mean of phenotype and motility EC50, 72 h, read-out: Activity on schistosomula (EC50, μM - 72 h) Average
# [19] = 72 h, read-out: EC50 on schistosomula (bounds and ranges given)
"EC50 [1, 6] [µM]","EC50 [1, 7] [µM]","EC50 [1, 8] [µM]","EC50 [1, 9] [µM]","EC50 [1, 10] [µM]","EC50 [2, 11] [nM]","EC50 [2, 12] [nM]",Compound,Effect on S. japonicum adult male worms [3],SEVERITY SCORES 5 h ([3]; S. japonicum),"SEVERITY SCORES 24 h ([3]; S. japonicum, 24 h)",SEVERITY SCORES 48 h ([3]; S. japonicum),SEVERITY SCORES 72 h ([3]; S. japonicum),Selectivity Index (SI) Somula [4],other results
0.66,0.69,0.63,0.69,0.63,44,44,"COc1ccc(Nc2nc3ccc([N+](=O)[O-])cc3nc2Nc2ccc(OC)c(C(F)(F)F)c2)cc1C(F)(F)F [Compound 35, N2, N3-bis(4-methoxy-3-(trifluoromethyl)phenyl)-6-nitroquinoxaline-2,3-diamine]",no appreciable activity,0,0,0,0,–,–
0.41,0.39,0.42,0.39,0.42,20.3,20.3,"O=[N+]([O-])c1ccc2nc(Nc3ccc(Cl)cc3)c(Nc3ccc(Cl)cc3)nc2c1 [Compound 26, N^2, N^3-bis(4-chlorophenyl)-6-nitroquinoxaline-2,3-diamine]",decreased motility starting at 48 h,0,0,1,2 and 1,–,"DESCRIPTORS 48 h [3, 13]: S; DESCRIPTORS 72 h [3, 13]: S, on sides and S"
1.41,1.8,1.02,–,–,–,318,"CCCCCC(=O)Nc1ccc2nc(Nc3ccc(Cl)c(Cl)c3)c(Nc3ccc(Cl)c(Cl)c3)nc2c1 [Compound 22d, N-(2,3-bis((3,4-dichlorophenyl)amino)quinoxalin-6-yl)hexanamide]",–,–,–,–,–,1.72,"EC50 [1, 14]: 1.8 µM; EC50 [1, 15]: 1.02 µM; EC50 ([2]; Table 5, Series C, read-out: Anti-schistosomal activity EC50 Adult (nM) Motility): 318 nM; Toxicity on HepG2 in words [4]: low toxicity; Selectivity Index (SI) Adult worms ([4]; HepG2 CC50 versus adult worm EC50): 7.65"
0.31,0.28,0.34,0.28,0.34,7.7,7.7,"O=[N+]([O-])c1ccc2nc(Nc3ccc(C(F)(F)F)cc3)c(Nc3ccc(C(F)(F)F)cc3)nc2c1 [Compound 31, 6-nitro-N2, N3-bis(4-(trifluoromethyl)phenyl)quinoxaline-2,3-diamine]",essentially lethal,0,0,4,4,–,"Onset time on S. japonicum [3]: ≤ 24 h; DESCRIPTORS 24 h ([3]; S. japonicum, 24 h, one line per replicate): Dark, S, on sides; DESCRIPTORS 48 h [3, 13]: Dying, deg; DESCRIPTORS 72 h [3, 13]: Dying, D; Onset time on S. haematobium [5]: ≤ 24 h; Effect on S. haematobium adult worms ([5]; 5, 24, 48 and 72 h): best activity; SEVERITY SCORES 5 h ([5]; S. haematobium, 5 h, max = 4, one line per replicate): 0; SEVERITY SCORES 24 h ([5]; S. haematobium, 24 h, max = 4, one line per replicate): 2; DESCRIPTORS 24 h ([5]; S. haematobium, 24 h, one line per replicate): S, on sides; also recorded: S, onsides; SEVERITY SCORES 48 h ([5]; S. haematobium, 48 h, max = 4, one line per replicate): 2; DESCRIPTORS 48 h ([5]; S. haematobium, 48 h, one line per replicate): S, on sides; also recorded: S, onsides; SEVERITY SCORES 72 h ([5]; S. haematobium, 72 h, max = 4, one line per replicate): 3; DESCRIPTORS 72 h ([5]; S. haematobium, 72 h, one line per replicate): S, dark on sides"
1.95,2,1.91,–,–,–,–,"O=C(Nc1ccc2nc(Nc3ccc(Cl)c(Cl)c3)c(Nc3ccc(Cl)c(Cl)c3)nc2c1)c1ccco1 [Compound 22f, N-(2,3-bis((3,4-dichlorophenyl)amino)quinoxalin-6-yl)furan-2-carboxamide]",–,–,–,–,–,2.91,"EC50 [1, 14]: 2 µM; EC50 [1, 15]: 1.91 µM"
–,–,–,–,–,–,–,FC(F)(F)c1cccc(Nc2nc3ccccc3nc2Nc2cccc(C(F)(F)F)c2)c1 [Compound 11],–,–,–,–,–,–,"Activity on schistosomula in the primary screen at 10 μM ([1]; 72 h): retained activity; EC50 [1, 16]: 1.12 µM; EC50 [1, 17]: 1.38 µM; EC50 [1, 18]: 1.25 µM; Effect on adult worm motility at 3.15 μM ([2]; 3.15 μM, lowest concentration tested): complete cessation of worm mobility; Effect on adult worm motility at 12.5 and 6.25 μM [2]: particularly active"
2.91,2.64,3.19,–,–,–,–,"O=[N+]([O-])c1ccc2nc(NCc3ccccc3)c(NCc3ccccc3)nc2c1 [Compound 36, N2, N3-dibenzyl-6-nitroquinoxaline-2,3-diamine]",–,–,–,–,–,1.74,"EC50 [1, 19]: > 2 µM; EC50 ([1]; Table 3, read-out: Anti-schistosomal activity EC50 (μM) Schistosomula Motility): 2.64 µM; EC50 ([1]; Table 3, read-out: Anti-schistosomal activity EC50 (μM) Schistosomula Phenotype): 3.19 µM"
3.38,3.25,3.51,–,–,–,–,"Nc1ccc2nc(Nc3ccc(Cl)c(Cl)c3)c(Nc3ccc(Cl)c(Cl)c3)nc2c1 [Compound 22a, N^2, N^3-bis(3,4-dichlorophenyl)quinoxaline-2,3,6-triamine]",–,–,–,–,–,–,"EC50 [1, 19]: > 2 µM; Toxicity on HepG2 in words [4]: low toxicity"
–,–,–,–,–,–,–,COC(=O)c1ccc(Nc2nc3ccc([N+](=O)[O-])cc3nc2Nc2ccc(C(=O)OC)cc2)cc1 [Compound 23],–,–,–,–,–,–,"Activity on schistosomula in the primary screen at 10 μM ([1]; 72 h): retained activity; EC50 [1, 16]: 1.44 µM; EC50 [1, 17]: 1.23 µM; EC50 [1, 18]: 1.33 µM; Effect on adult worm motility at 12.5 and 6.25 μM [2]: particularly active"
